Source: patent US12365687B2 (Hoffmann-La Roche Inc., priority 2021, dated 2025)

Assays:
[1] = biological target: human GABAA α2β2γ1 receptor (Homo sapiens (Human), UniProt P47869+Q8N1C3); experiment: Radioligand binding assay for γ1-containing GABAA subtypes, [3H]RO7239181 competition (α2β2γ1)
[2] = biological target: human GABAA α5β2γ1 receptor (Homo sapiens (Human), UniProt P31644+Q8N1C3); experiment: Radioligand binding assay for γ1-containing GABAA subtypes, [3H]RO7239181 competition (α5β2γ1)
[3] = biological target: human GABAA α1β3γ2 receptor (Homo sapiens (Human), UniProt P14867+P18507); experiment: Radioligand binding assay for γ2-containing GABAA subtypes, [3H]Flumazenil competition (α1β3γ2); settings: for γ2/γ1 Selectivity Ratio: Ki α1β3γ2 (nM)/Ki α2β2γ1 (nM); for LogSel: Log[Ki α1β3γ2 (nM)/Ki α2β2γ1 (nM)]
[4] = biological target: α2β2γ1 GABAA receptor subtype (Homo sapiens (Human), UniProt P47869+Q8N1C3); experiment: Two-electrode voltage clamp electrophysiology in Xenopus oocytes expressing GABAA receptors (modulation of GABA EC20 current); assay type: cell-based; settings: for Efficacy (GABA)%: % modulation of GABA EC20 = 100*(Fold increase-1), α2β2γ1 oocytes, compound at approx. 30-fold Ki; for Fold increase h-GABA-A α2β2γ1 oocyte @ 30-fold Ki: Xenopus oocytes expressing α2β2γ1, compound at approx. 30-fold its Ki α2β2γ1, GABA EC20 current
How it was run: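 Two-electrode voltage clamp at −80 mV, room temperature, 3-5 days after mRNA injection into oocytes. GABA applied at EC20 for 1.5 min, twice, with compound during second application; at least 3 oocytes per concentration. Efficacy = extremum of point-by-point current ratio, expressed as 100×(fold increase−1).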

[5] = Ki h-GABAA α2β2γ1, [3H]RO7239181 competition binding, human GABAA α2β2γ1
[6] = Ki h-GABAA α2β2γ1, displacement of [3H]RO7239181, membranes of HEK293F cells expressing human receptors, means of two determinations

Structure (SMILES)	Ki [1, 5] [nM]	Ki [1, 6] [nM]	Ki [2] [nM]	Ki [3] [nM]	γ2/γ1 Selectivity Ratio [3]	LogSel [3]	Efficacy (GABA)% [4] [%]	Fold increase h-GABA-A α2β2γ1 oocyte @ 30-fold Ki [4]
C[C@@H]1N=C(c2ncccc2F)c2c(ccc(C(F)(F)F)c2Cl)-n2nc(C(=O)N3CC[C@H](F)C3)nc21 [Example 123, [(4S)-7-chloro-6-(3-fluoro-2-pyridyl)-4-methyl-8-(trifluoromethyl)-4H-[1,2,4]triazolo[1,5-a][1,4]benzodiazepin-2-yl]-[(3S)-3-fluoropyrrolidin-1-yl]methanone]	91.8	91.9	9.75	> 30000	326.6	2.51	162	2.62
COCc1nc2n(n1)-c1ccc(Cl)c(Cl)c1C(c1c(F)cccc1F)=N[C@H]2C [Example 27, (4S)-7,8-dichloro-6-(2,6-difluorophenyl)-2-(methoxymethyl)-4-methyl-4H-[1,2,4]triazolo[1,5-a][1,4]benzodiazepine]	11.4	11.4	1.08	707	61.8	1.79	69	1.69
C[C@@H]1N=C(c2ncccc2F)c2c(ccc(C(F)(F)F)c2Cl)-n2c(CO)cnc21 [Example 151, [(4S)-7-chloro-6-(3-fluoro-2-pyridyl)-4-methyl-8-(trifluoromethyl)-4H-imidazo[1,2-a][1,4]benzodiazepin-1-yl]methanol]	92.8	92.8	24	13200	142.0	2.15	253	3.53
C[C@@H]1N=C(c2c(F)cccc2F)c2c(ccc(Cl)c2Cl)-n2nc(C(=O)N3CC[C@@H](F)C3)nc21 [Example 76, [(4S)-7,8-dichloro-6-(2,6-difluorophenyl)-4-methyl-4H-[1,2,4]triazolo[1,5-a][1,4]benzodiazepin-2-yl]-[(3R)-3-fluoropyrrolidin-1-yl]methanone]	6.1	6.1	1.64	968	157.7	2.20	52	1.52
C[C@@H]1N=C(c2c(F)cccc2F)c2c(ccc(C(F)(F)F)c2Cl)-n2nc(C(=O)NC[C@@H](C)O)nc21 [Example 105, (4S)-7-chloro-6-(2,6-difluorophenyl)-N-[(2R)-2-hydroxypropyl]-4-methyl-8-(trifluoromethyl)-4H-[1,2,4]triazolo[1,5-a][1,4]benzodiazepine-2-carboxamide]	13.9	13.9	5.05	5130	368.4	2.57	98	1.98
CC1CN(C(=O)c2nc3n(n2)-c2ccc(C(F)(F)F)c(Cl)c2C(c2ncccc2F)=N[C@H]3C)C1 [Example 135, [(4S)-7-chloro-6-(3-fluoro-2-pyridyl)-4-methyl-8-(trifluoromethyl)-4H-[1,2,4]triazolo[1,5-a][1,4]benzodiazepin-2-yl]-(3-methylazetidin-1-yl)methanone]	50.6	50.6	9.35	> 30000	592.7	2.77	118	2.18
CO[C@@H]1CCN(C(=O)c2nc3n(n2)-c2ccc(Cl)c(Cl)c2C(c2c(F)cccc2F)=N[C@H]3C)C1 [Example 46, [(4S)-7,8-dichloro-6-(2,6-difluorophenyl)-4-methyl-4H-[1,2,4]triazolo[1,5-a][1,4]benzodiazepin-2-yl]-[(3R)-3-methoxypyrrolidin-1-yl]methanone]	5.9	5.91	2.14	867	146.6	2.17	73	1.73
C[C@@H]1N=C(c2ncccc2F)c2c(ccc(Cl)c2Cl)-n2nc(C(=O)N3CC4(COC4)C3)nc21 [Example 102, [(4S)-7,8-dichloro-6-(3-fluoro-2-pyridyl)-4-methyl-4H-[1,2,4]triazolo[1,5-a][1,4]benzodiazepin-2-yl]-(2-oxa-6-azaspiro[3.3]heptan-6-yl)methanone]	51.5	51.5	6.83	7250	140.7	2.15	143	2.43
Cc1cnc2n1-c1ccc(C(F)(F)F)c(Cl)c1C(c1ncccc1F)=N[C@H]2C [Example 136, (4S)-7-chloro-6-(3-fluoro-2-pyridyl)-1,4-dimethyl-8-(trifluoromethyl)-4H-imidazo[1,2-a][1,4]benzodiazepine]	37.5	37.5	6.22	6130	163.5	2.21	116	2.16
COC1CN(C(=O)c2cn3c(n2)CN=C(c2c(F)cccc2F)c2c-3ccc(Cl)c2Cl)C1 [Example 2, (7,8-dichloro-6-(2,6-difluorophenyl)-4H-benzo[f]imidazo[1,2-a][1,4]diazepin-2-yl)(3-methoxyazetidin-1-yl)methanone]	6.5	6.5	1.26	255	39.3	1.59	42	1.42
CCOC1CN(C(=O)c2cn3c(n2)[C@H](C)N=C(c2ncccc2F)c2c-3ccc(C(F)(F)F)c2Cl)C1 [Example 158, (3-ethoxyazetidin-1-yl)-[(4S)-7-chloro-6-(3-fluoro-2-pyridyl)-4-methyl-8-(trifluoromethyl)-4H-imidazo[1,2-a][1,4]benzodiazepin-2-yl]methanone]	94.6	94.1	21.7	> 30000	318.9	2.50	144	2.44
C[C@@H]1N=C(c2c(F)cccc2F)c2c(ccc(Cl)c2Cl)-n2nc(C(=O)NC3COC3)nc21 [Example 55, (4S)-7,8-dichloro-6-(2,6-difluorophenyl)-4-methyl-N-(oxetan-3-yl)-4H-[1,2,4]triazolo[1,5-a][1,4]benzodiazepine-2-carboxamide]	5.4	5.4	1.15	555	102.8	2.01	58	1.58
O=C(c1nc2n(n1)-c1ccc(Cl)c(Cl)c1C(c1c(F)cccc1F)=NC2)N1CCC1 [Example 8, azetidin-1-yl-[7,8-dichloro-6-(2,6-difluorophenyl)-4H-[1,2,4]triazolo[1,5-a][1,4]benzodiazepin-2-yl]methanone]	8.2	8.2	1.08	368	44.7	1.65	98	1.98
C[C@@H]1N=C(c2c(F)cccc2F)c2c(ccc(Cl)c2Cl)-n2cc(C#N)nc21 [Example 74, (4S)-7,8-dichloro-6-(2,6-difluorophenyl)-4-methyl-4H-imidazo[1,2-a][1,4]benzodiazepine-2-carbonitrile]	9.6	9.6	0.7	593	61.8	1.79	75	1.75
C[C@@H]1N=C(c2c(F)cccc2F)c2c(ccc(Cl)c2Cl)-n2nc(C(=O)N3CC4(CCO4)C3)nc21 [Example 94, [(4S)-7,8-dichloro-6-(2,6-difluorophenyl)-4-methyl-4H-[1,2,4]triazolo[1,5-a][1,4]benzodiazepin-2-yl]-(1-oxa-6-azaspiro[3.3]heptan-6-yl)methanone]	3.9	3.89	1.43	586	150.7	2.18	76	1.76
C[C@@H]1N=C(c2ncccc2F)c2c(ccc(Cl)c2Cl)-n2nc(C(=O)N3CC4(CCCCO4)C3)nc21 [Example 101, [(4S)-7,8-dichloro-6-(3-fluoro-2-pyridyl)-4-methyl-4H-[1,2,4]triazolo[1,5-a][1,4]benzodiazepin-2-yl]-(5-oxa-2-azaspiro[3.5]nonan-2-yl)methanone]	38	38	14.4	8680	228.3	2.36	97	1.97
